# Assay results from patent US20060194800A1, “Pteridine derivatives as nitric oxide synthase activators” (University of Strathclyde, priority 2005, published 2006).
# Test system: rat pulmonary artery
# Experiment: Rat pulmonary artery ring relaxation (endogenous tetrahydrobiopterin present)
# Conditions: rat pulmonary artery, normal or DAHP-treated
# Method: Rings (5 mm long) of rat pulmonary artery and aorta, were supported on a pair of intraluminal wires at 1 gm tension for one hour and then contracted with their EC50 phenylephrine concentration, which for pulmonary artery was 3.6×10^−8 M (derived from preliminary experiments) and for aorta was 11.8×10^−8 M (from the previously published literature). The rings were then relaxed with carbachol (10 μM). If the relaxation to carbachol was >75%, then the tissues were used to generate dose responses by addition of tetrahydrobiopterin (BH4) or the analogues. Stock BH4 was stored at −20° C. and the dilutions were prepared using saline just before adding the drug into the bath. Solutions of analogues were stored at 4° C. Cumulatively increasing concentrations of the analogues were added to the bath and the extent of relaxation was measured when it had stabilised. Another ring from the same rat was treated in parallel with the solvent for the analogue. The solvent used was NH4OH. The results are shown graphically in FIGS. 1 and 2.
row,Compound,concentrations of tetrahydrobiopterin causing contraction
1,"C[C@H](O)[C@H](O)[C@H]1CNc2nc(N)[nH]c(=O)c2N1 [tetrahydrobiopterin, reference compound]",above 3 μM

# Target: T1, iNOS (Mus musculus, UniProt P29477)
# T1 construct: stimulated macrophages that produce iNOS; endogenous in cells; host or cells: primary mouse macrophages (from femur), LPS-stimulated, DAHP-treated
# Experiment: Macrophage assay (iNOS), macrophages depleted of tetrahydrobiopterin by DAHP
# Format: cell-based
# Conditions: 72 h; tested at 1 microM in macrophages; P = promotes NOS activity; read-out: iNOS effect *H155
# T1 sequence (P29477 whole entry): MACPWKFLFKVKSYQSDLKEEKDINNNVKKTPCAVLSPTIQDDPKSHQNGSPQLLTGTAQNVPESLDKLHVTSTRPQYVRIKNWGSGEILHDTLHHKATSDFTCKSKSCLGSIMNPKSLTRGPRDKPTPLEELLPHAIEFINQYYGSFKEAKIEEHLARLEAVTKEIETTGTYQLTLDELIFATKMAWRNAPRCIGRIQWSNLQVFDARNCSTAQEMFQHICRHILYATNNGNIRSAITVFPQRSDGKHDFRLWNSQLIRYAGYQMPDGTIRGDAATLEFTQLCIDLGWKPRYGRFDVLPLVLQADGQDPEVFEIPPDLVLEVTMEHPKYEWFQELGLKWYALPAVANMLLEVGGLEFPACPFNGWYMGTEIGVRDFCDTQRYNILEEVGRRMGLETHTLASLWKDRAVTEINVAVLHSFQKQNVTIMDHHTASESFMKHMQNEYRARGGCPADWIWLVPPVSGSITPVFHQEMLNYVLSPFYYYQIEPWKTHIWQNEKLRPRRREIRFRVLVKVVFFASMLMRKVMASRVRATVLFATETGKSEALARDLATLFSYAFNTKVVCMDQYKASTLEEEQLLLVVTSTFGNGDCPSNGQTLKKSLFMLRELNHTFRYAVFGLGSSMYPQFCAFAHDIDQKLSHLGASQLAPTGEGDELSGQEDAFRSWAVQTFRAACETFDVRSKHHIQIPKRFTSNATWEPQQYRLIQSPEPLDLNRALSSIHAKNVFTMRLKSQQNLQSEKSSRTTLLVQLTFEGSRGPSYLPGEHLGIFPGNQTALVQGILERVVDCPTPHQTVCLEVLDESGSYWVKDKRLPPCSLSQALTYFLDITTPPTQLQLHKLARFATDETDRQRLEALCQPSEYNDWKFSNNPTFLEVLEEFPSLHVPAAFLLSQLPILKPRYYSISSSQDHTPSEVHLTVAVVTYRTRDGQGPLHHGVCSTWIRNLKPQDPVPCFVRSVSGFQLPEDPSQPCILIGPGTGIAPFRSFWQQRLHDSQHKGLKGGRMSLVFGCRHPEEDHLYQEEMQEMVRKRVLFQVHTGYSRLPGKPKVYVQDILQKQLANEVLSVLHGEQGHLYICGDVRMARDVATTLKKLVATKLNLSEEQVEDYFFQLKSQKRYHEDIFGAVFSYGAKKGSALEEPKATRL
row,Compound,activation at 1 µM
1,"Nc1nc2ncc(C=O)nc2c(=O)[nH]1 [wsg1003, 2-Amino-4-oxo-3,4-dihydro-pteridine-6-carbaldehyde]",20 to 50%
2,"Nc1nc2ncc(C(=O)O)nc2c(=O)[nH]1 [wsg1005, 2-Amino-4-oxo-3,4-dihydro-pteridine-6-carboxylic acid]",20 to 50%
3,"CC12CCCC1(S(=O)(=O)O)Nc1c(nc(N)[nH]c1=O)N2 (stereo not shown) [wsg1008, 6-Amino-3a-methyl-8-oxo-1,2,3,3a,4,7,8,9-octahydro-4,5,7,9-tetraaza-cyclopenta[b]naphthalene-9a-sulfonic acid]",20 to 50%
4,"Cc1nc2nc(N)[nH]c(=O)c2nc1C [wsg1009, 2-Amino-6,7-dimethyl-3H-pteridin-4-one]",20 to 50%
5,"CC1Nc2nc(N)[nH]c(=O)c2NC1C (stereo not shown) [wsg1010, 2-Amino-6,7-dimethyl-4-oxo-3,4,5,6,7,8-hexahydro-pteridin-5-ium Cl-]",20 to 50%
6,"CC1(CCc2ccccc2)Nc2nc(N)[nH]c(=O)c2N=C1C=O (stereo not shown) [wsg1016, 2-Amino-7-methyl-4-oxo-7-phenethyl-3,4,7,8-tetrahydro-pteridine-6-carbaldehyde]",< 20%

# Now from value to compound:
row,activation at 1 µM,Compound
1,20 to 50%,"CC1(C)Nc2nc(N)[nH]c(=O)c2N=C1CO [wsg1004, 2-Amino-6-hydroxymethyl-7,7-dimethyl-7,8-dihydro-3H-pteridin-4-one]"
2,20 to 50%,"CCC1=Nc2c(nc(N)[nH]c2=O)NC1(C)C [wsg1006, 2-Amino-6-ethyl-7,7-dimethyl-7,8-dihydro-3H-pteridin-4-one]"
3,20 to 50%,"CC12CCCCC1=Nc1c(nc(N)[nH]c1=O)N2 (stereo not shown) [wsg1007, 2-Amino-9a-methyl-6,7,8,9,9a,10-hexahydro-3H-benzo[g]pteridin-4-one]"
4,20 to 50%,"CC1=Nc2c(nc(N)[nH]c2=O)NC1C (stereo not shown) [wsg1011, 2-Amino-6,7-dimethyl-4-oxo-3,4,7,8-tetrahydro-pteridin-8-ium Cl-]"
5,20 to 50%,"CC1(C)Nc2nc(N)[nH]c(=O)c2N=C1Cc1ccccc1 [wsg1012, 2-Amino-6-benzyl-7,7-dimethyl-7,8-dihydro-3H-pteridin-4-one]"
6,< 20%,"CCC1(CC)Nc2nc(N)[nH]c(=O)c2N=C1CO [wsg1014, 2-Amino-7,7-diethyl-6-hydroxymethyl-7,8-dihydro-3H-pteridin-4-one]"
7,> 50%,"CC1(C)Nc2nc(N)[nH]c(=O)c2N=C1/C=C/c1ccc(Cl)cc1 [wsg1017, 2-Amino-6-[2-(4-chloro-phenyl)-vinyl]-7,7-dimethyl-7,8-dihydro-3H-pteridin-4-one]"
8,20 to 50%,"CC1(CCc2ccccc2)Nc2nc(N)[nH]c(=O)c2N=C1CO (stereo not shown) [wsg1018, 2-Amino-6-hydroxymethyl-7-methyl-7-phenethyl-7,8-dihydro-3H-pteridin-4-one]"
9,< 20%,"CC1=Nc2c(nc(N)[nH]c2=O)OC1(C)C [wsg1019, 2-Amino-6,7,7-trimethyl-3,7-dihydro-pyrimido[4,5-b][1,4]oxazin-4-one]"
